The nature of experiment [1]: blockers of HIV-1 ZM109 envelope-driven cell-cell fusion – HeLa effector, CEM target cells, luciferase, cherry-pick, dose response (AID 652058).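 Also: luciferase signal from HIV-1 Env mediated cell-cell fusion of effector and target cells.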 In kind it is functional, cell-based.
Experiment [2] is described as follows: HIV-1 AD8 envelope cell-cell fusion blockers – cherry-pick, dose response (AID 652062).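 Also: luciferase signal from cell-cell fusion driven by HIV-1 clade B AD8 Env; potency is for inhibitors of fusion seen as a drop in luminescence.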 In kind it is functional, cell-based.
Experiment [3] is described as follows: blockers of HIV-1 envelope-mediated cell-cell fusion – cherry-pick, dose response (AID 652057). In kind it is functional, cell-based.
A short description of experiment [4]: viability loss in CEM21 cells – cell-based, CellTiter-Glo luminescence, cherry-picked, cytotoxicity control for viral fusion inhibitor project, dose response (AID 652042).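 Also: potency for signal decrease meaning cytotoxicity.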 In kind it is functional. In general terms: ATP-based viability assays read luminescence as a measure of living cells.
The next experiment addresses Protein Tat (Human immunodeficiency virus type 1 group M subtype B (isolate HXB2)(HIV-1), UniProt P04608). In kind it is functional.
A short description of a further experiment: cells. In kind it is functional, cell-based.
Experiment [5] has as its target T1, Nuclear receptor subfamily 0 group B member 1 (Homo sapiens, UniProt P51843).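 Also: HEK293T cells transfected with SF-1 and DAX-1 plus StAR promoter luciferase reporter.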
T1 sequence (P51843 whole entry): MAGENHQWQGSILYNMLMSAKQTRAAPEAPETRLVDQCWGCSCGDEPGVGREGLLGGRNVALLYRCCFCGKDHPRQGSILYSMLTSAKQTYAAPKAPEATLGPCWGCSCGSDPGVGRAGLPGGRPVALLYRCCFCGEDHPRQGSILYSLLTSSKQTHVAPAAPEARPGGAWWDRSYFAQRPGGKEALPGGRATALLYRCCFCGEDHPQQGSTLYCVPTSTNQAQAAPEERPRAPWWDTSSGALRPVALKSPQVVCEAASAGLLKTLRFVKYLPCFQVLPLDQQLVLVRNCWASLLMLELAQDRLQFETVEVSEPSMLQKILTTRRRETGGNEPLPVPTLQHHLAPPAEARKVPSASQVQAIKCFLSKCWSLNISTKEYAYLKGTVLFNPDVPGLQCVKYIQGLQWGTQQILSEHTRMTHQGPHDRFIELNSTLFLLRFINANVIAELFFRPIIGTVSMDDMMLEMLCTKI
In kind it is functional, cell-based.

For experiment [6], the target named is COUP transcription factor 2 (Homo sapiens, UniProt P24468). Kind of experiment: Luminescence-based cell-based high throughput dose response assay to identify inhibitors of COUP-TFII (NR2F2). In kind it is functional.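 Also: HEK293 cells transiently cotransfected with COUP-TFII expression vector and reporter; luciferase reporter luminescence driven by COUP-TFII from the pX2-168 reporter plasmid.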
Experiment [7] in a line: OVCAR-3 cell viability loss – plate reader, dry powder samples, PAX8 inhibitor project, dose response (AID 743044). In kind it is functional, cell-based.
Experiment [8] can be described thus: OVCAR8 cell viability loss – plate reader, dry powder samples, PAX8 project, dose response (AID 743197). Format: functional, cell-based. The conditions noted are these: OVCAR-8.
Experiment [9] is described as follows: general cell-killing toxicity readout – plate reader, dry powder samples, cytotoxicity control for PAX8 inhibitor project, dose response (AID 743021). In kind it is functional, cell-based.
Another experiment has as its target Paired box protein Pax-8 (Homo sapiens, UniProt Q06710). Kind of experiment: PAX8 transcriptional activity inhibition in RMG-I – RMG-I cells, luciferase, cherry-pick, dose response (AID 687027).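 Also: luciferase reporter driven by Pax8 target thyroperoxidase promoter measured by SteadyGlo luminescence.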 Format: functional, cell-based.
The nature of experiment [10]: toxicity toward immortalized ovarian surface epithelium – cell-based, plate reader, dry powder samples, cytotoxicity control for PAX8 inhibitor project, dose response (AID 743045). In kind it is functional.
Experiment [11] is described as follows: A549 lung cell viability reduction – CellTiter-Glo luminescence, cherry-pick, cytotoxicity control, dose response (AID 743484). Format: functional, cell-based.
Experiment [12] in a line: ATP-based viability loss in HEK293T cells – cell-based, CellTiter-Glo luminescence, cherry-picked samples, set 4, cytotoxicity control, dose response (AID 743441). In kind it is functional. The conditions noted are these: HEK293.
Experiment [13] in a line: Luminescence Cell-Based Dose Response to Identify Activators of Luciferase Translation or Activity in H4-C Neuroglioblastoma Cells. [Related pubchem assays: 1829 (Project Summary), 1814 (Primary HTS)]. Format: functional.
The nature of experiment [14]: Luminescence Cell-Based Dose Response to Identify Activators of 5'UTR Stem-Loop Driven Prion Protein mRNA Translation in H4-C Neuroglioblastoma Cells. [Related pubchem assays: 1829 (Project Summary), 1814 (Primary HTS)]. Format: functional.
Another experiment deals with H4. The experiment can be described thus: Luminescence Cell-Based Dose Response HTS to Identify Activators of 5'UTR Stem-Loop Driven Prion Protein mRNA Translation in H4 Neuroglioblastoma Cells. [Related pubchem assays: 1829 (Project Summary), 1814 (Primary HTS)]. Conditions: Homo sapiens. In kind it is functional.
Experiment [15] is described as follows: Luminescence Cell-Based Dose Confirmation to Identify Activators of 5'UTR Stem-Loop Driven Alpha-Synuclein mRNA Translation in H4 Neuroglioblastoma Cells. [Related pubchem assays: 1829 (Project Summary), 1814 (Primary HTS)]. Format: functional.
A short description of experiment [16]: Luminescence Cell-Based Dose Response HTS to Identify Activators of Luciferase Translation or Activity in H4 […] Cells. [Related pubchem assays: 1829 (Project Summary), 1814 (Primary HTS)]. Format: functional.

The source made the active and inactive calls. A value given as a limit tells only on which side of the number the result lay.

Sequence of Paired box protein Pax-8 (Q06710 whole entry): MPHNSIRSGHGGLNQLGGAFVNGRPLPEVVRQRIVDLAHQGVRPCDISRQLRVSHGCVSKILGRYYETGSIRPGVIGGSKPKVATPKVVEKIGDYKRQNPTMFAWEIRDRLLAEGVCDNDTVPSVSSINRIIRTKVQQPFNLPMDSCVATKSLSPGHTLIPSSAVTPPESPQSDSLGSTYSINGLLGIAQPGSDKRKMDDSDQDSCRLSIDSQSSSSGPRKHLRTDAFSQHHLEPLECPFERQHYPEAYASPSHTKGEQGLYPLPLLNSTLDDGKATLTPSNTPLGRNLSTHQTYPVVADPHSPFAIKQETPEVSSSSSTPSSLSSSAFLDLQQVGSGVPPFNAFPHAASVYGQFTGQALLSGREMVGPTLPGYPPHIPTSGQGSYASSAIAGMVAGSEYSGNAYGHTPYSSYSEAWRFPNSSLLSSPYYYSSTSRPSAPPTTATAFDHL
Sequence of COUP transcription factor 2 (P24468 whole entry): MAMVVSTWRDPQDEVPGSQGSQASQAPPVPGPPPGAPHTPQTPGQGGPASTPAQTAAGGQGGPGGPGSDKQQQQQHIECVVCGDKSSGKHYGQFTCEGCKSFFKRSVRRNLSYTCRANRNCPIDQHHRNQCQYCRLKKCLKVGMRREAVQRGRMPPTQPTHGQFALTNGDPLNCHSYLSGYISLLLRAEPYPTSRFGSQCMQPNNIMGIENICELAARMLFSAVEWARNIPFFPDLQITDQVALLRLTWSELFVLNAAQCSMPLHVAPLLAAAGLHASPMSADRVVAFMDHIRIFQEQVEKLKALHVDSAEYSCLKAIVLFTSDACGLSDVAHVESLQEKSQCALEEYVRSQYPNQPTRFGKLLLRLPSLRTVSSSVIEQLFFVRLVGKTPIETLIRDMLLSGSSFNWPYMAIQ
Sequence of Protein Tat (P04608 whole entry): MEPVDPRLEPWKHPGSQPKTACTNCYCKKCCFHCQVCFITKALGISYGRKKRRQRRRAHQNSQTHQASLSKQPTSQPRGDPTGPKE

In general, AC50 refers to the concentration giving half of the maximal activity seen. For `COc1ccc(C(=O)Nc2nc(-c3ccc(S(=O)(=O)N4CCOCC4)cc3)cs2)cc1`, the AC50 in experiment [1] is 664 nM (active); in experiment [2], 7.62 µM (active); in experiment [3] it was 63.4 µM (active); in [4] it was 40.3 µM (active).

Usually IC50 stands for the concentration needed to halve the response being measured. `COc1ccc(OC)c(N/C(C)=C/C(=O)c2ccc(C)o2)c1`: at Protein Tat, the concentration for half-maximal inhibition (IC50) is > 100 µM (inconclusive).

Take `O=C(Nc1ccc(SC(F)(F)F)cc1)c1ccccn1`: the results for the IC50 (in “cells”; in [5]) were > 67.5 µM (inactive) and > 0.834 µM (active), respectively.

As to `Cc1cccc(N2CCN(C(=O)c3[nH]c(C(F)(F)F)nc3-c3ccccc3)CC2)c1C`, the IC50 (in the experiment “cells”; in experiment [5]) was > 67.5 µM (inactive) in each case.

Consider `CCNc1nc(-c2sc(NC(=O)C(C)(C)C)nc2C)c(-n2cc(-c3ccccc3)nn2)s1`, for which, in experiment [6], the IC50 was 10.7 µM (inactive).

Turning to `N#C[C@@H]1[C@H](c2ccc(-c3cccc(F)c3)cc2)[C@H](CO)N1C(=O)c1cccnc1`, the figures for the AC50 in experiment [2] and in [4] were 3.62 µM (active) and 57.4 µM (active), respectively.

`C[C@H](CO)N1C[C@H](C)[C@@H](CN(C)S(=O)(=O)c2ccc(Cl)cc2)OCCCC[C@H](C)Oc2ccc(NS(=O)(=O)c3cccs3)cc2C1=O`: the AC50 in experiment [7] is 15 µM (active); in [8] it was 24.5 µM (active); in experiment [9] it was 21.4 µM (active); at Paired box protein Pax-8, 4.18 µM (active); in experiment [10] it was 12.7 µM (active).

As to `COc1cc2c(cc1[N+](=O)[O-])-c1ccc([N+](=O)[O-])cc1C2`, the AC50 is 12.4 µM (active) in experiment [11] and 26.7 µM (active) in experiment [12].

One may read the EC50 as the concentration needed to bring the measured effect to its halfway point. Take `O=C(Nc1cccnc1)c1cc(-c2cc(Cl)ccc2O)n[nH]1`: the EC50 in [13] is 560 nM (active); in experiment [14], > 12 µM (not active); in the experiment on H4, 608 nM (active); in experiment [15] it was 439 nM (active); in experiment [16], 6.15 µM (active).
